The text below walks through data of article PMC8258697 (The Journal of Biological Chemistry, 2021).

Holding throughout (format): binding
One assay addresses T1, RXRα homodimer (Homo sapiens, UniProt P19793).
T1 construct: His10-tag with TEV site (N, cleaved yes); made in house; host or cells: E. coli T7 express (co-expressed with GroEL/ES)
T1 sequence (P19793 226-462) 1: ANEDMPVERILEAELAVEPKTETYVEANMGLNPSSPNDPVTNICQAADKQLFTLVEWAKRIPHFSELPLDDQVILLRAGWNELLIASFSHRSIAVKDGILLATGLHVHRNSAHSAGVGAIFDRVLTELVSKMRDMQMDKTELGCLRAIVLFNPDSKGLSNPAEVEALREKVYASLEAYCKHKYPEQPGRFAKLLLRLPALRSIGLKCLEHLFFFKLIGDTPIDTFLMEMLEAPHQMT
T1 sequence (P19793 226-462) 2: T1 sequence (P19793 226-462) 1
Kind of assay: RXRα homodimer formation HTRF assay, sGFP-RXRα LBD titrated against biotinylated RXRα LBD (wildtype). To be noted: 10 μM ligand compared with no ligand. (In general: TR-FRET usually uses a lanthanide donor and a delayed reading to cut background.)

For a further assay, the target named is T2, RXRα total mutant LBD (Homo sapiens, UniProt P19793, E453R/F450Y/K284E/V280T/V298T).
T2 construct: MBP-Asn10-His8-TEV site (N, cleaved yes); made in house; host or cells: E. coli T7 express (co-expressed with GroEL/ES)
T2 sequence (P19793 223-462 V280T/K284E/V298T/F450Y/E453R): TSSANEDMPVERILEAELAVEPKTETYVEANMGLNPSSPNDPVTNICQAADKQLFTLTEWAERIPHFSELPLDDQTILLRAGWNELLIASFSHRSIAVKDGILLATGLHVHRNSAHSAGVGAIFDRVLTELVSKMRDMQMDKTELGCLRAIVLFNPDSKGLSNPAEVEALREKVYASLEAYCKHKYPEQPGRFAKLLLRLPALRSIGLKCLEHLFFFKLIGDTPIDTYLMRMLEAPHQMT
Briefly: Isothermal titration calorimetry, RXRα total mutant LBD. The conditions noted are these: 25°C. How it is done:
SI method 1: LBD pulldown
In order to verify proper dimer formation capability of the majority of the protein preparation a pulldown experiment was performed. Therefore, small centrifugal filter columns (nylon membrane with […] pore size; VWR) were loaded with 20 µl of Pierce® high capacity streptavidin agarose beads (Thermo Scientific) equilibrated in HTRF buffer [25 mM HEPES pH 7.5, 150 mM KF, 10% (w/v) glycerol, 5 mM DTT (fresh)], then 20 µl of a mixture of biotin coupled RXRα LBD (4 µg) and the respective PPAR LBD (1.4 µg) was applied. After incubation for 10 min at room temperature followed by centrifugation for 2 min and 900 x g the input mixture as well as the flowthrough was analyzed via SDS PAGE. Gels were scanned using an Li-Cor Odyssey imager (LI-COR® Biosciences GmbH, Germany). Missing bands in comparison to the input control were interpreted in two different ways. […]
The heats of dilution resulting from titrating one of the RXRα LBD proteins into the cell containing only buffer were recorded separately and subtracted from the raw ITC data obtained with compound. Data were analyzed using the NanoAnalyze software package (version 3.7.5). […] Free energy change (ΔG) was calculated using the equation […]
and from there the entropy (ΔS) was calculated from […]
µM SR11237. […] The heats of dilution resulting from titrating of protein into buffer were recorded separately and subtracted. […]
Background: Isothermal titration calorimetry measures the heat released or taken up as one component is titrated into another.

In another assay the target is T3, PPARγ:RXRα heterodimer (Homo sapiens, UniProt P19793+P37231).
T3 construct: His10-tag with TEV site (N, cleaved yes); made in house; host or cells: E. coli T7 express (co-expressed with GroEL/ES)
T3 sequence (P37231 234-505): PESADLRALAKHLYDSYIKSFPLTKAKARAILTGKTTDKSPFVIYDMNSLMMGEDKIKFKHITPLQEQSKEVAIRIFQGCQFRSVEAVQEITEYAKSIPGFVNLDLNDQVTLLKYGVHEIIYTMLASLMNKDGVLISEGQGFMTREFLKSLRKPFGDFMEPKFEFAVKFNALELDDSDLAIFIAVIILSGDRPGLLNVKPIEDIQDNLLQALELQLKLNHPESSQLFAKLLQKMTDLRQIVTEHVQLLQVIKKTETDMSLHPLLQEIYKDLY
T3 sequence (P19793 226-462): T1 sequence (P19793 226-462) 1
Briefly: PPARγ:RXRα heterodimer formation HTRF assay, sGFP-RXRα LBD titrated against biotinylated PPARγ LBD coupled to Tb-SA. To be noted: 10 μM ligand compared with no ligand.

In the case of `CC1(C)CCC(C)(C)c2cc(C3(c4ccc(C(=O)O)cc4)OCCO3)ccc21` [SR11237], at RXRα homodimer, the “effect on RXRα homodimer formation” value is “significantly destabilized the homodimer”. Besides, the “binding affinity (ITC)” value at RXRα total mutant LBD is recorded as “comparable affinity”. The “effect on PPARγ:RXRα heterodimer formation” value on PPARγ:RXRα heterodimer was “significant stabilizing effect”.
